PMC8524146, “In vitro and in silico characterization of alkaline serine protease from Bacillus subtilis D9 recovered from Saudi Arabia” (Heliyon, 2021)

Target: T1, AKD9 alkaline serine protease (Bacillus subtilis, UniProt A0A5Q0V2V1)
T1 construct: native enzyme purified from culture supernatant of isolate D9; single band just below 48 kDa; cloned gene 442 aa, 47,789 Da
Test: casein hydrolysis, A280 of TCA-soluble products
Assay type: biochemical
Conditions: 100 µM; 0.1 mM TLCK; casein substrate
From the text: casein hydrolysis, A280 of TCA-soluble products on AKD9 alkaline serine protease

T1 sequence (A0A5Q0V2V1 1-442): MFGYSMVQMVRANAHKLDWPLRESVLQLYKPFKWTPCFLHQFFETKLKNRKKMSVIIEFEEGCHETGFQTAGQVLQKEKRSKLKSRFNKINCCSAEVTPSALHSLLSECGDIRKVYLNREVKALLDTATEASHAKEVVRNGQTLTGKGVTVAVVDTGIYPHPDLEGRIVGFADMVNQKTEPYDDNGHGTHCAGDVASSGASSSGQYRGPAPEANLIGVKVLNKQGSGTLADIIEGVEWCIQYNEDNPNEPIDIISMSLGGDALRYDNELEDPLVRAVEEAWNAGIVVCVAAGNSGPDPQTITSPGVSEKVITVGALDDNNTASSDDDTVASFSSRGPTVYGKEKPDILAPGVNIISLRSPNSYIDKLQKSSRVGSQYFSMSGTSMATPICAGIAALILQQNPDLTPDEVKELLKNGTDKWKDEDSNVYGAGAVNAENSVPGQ

For `Cc1ccc(S(=O)(=O)N[C@@H](CCCCN)C(=O)CCl)cc1` [TLCK], the “Residual activity, U/ml” value was 31.5 ± 0.4 U/ml.
